Laboratory results as given in patent publication US11576913B2 (priority 2018, dated 2023).
Where two headings read alike, the source gives them in different places.

Key:
[1] = system: subjects suffering from the Insomnia Disorder adult insomnia; test: Polysomnography crossover study of sleep parameters (SE, TST, WASO, LPS, Stage N2); assay type: in vivo, human; conditions: for Latency to Persistent Sleep (LPS) Least Squares Means (STDE) / Sleep Efficiency (SE) Least Squares Means (STDE) / Time Spent in Sleep Stage N2 Least Squares Means (STDE) / Total Sleep Time (TST) Least Squares Means (STDE) / Wake after Sleep Onset (WASO) Least Squares Means (STDE): average of Night 1 and Night 2, full analysis population; for WASO, decrease in the difference of LSMs: stated as decrease
Procedure: The study randomized up to about 30 subjects to achieve at least about 24 completers (i.e., subjects who completed all 5 Dosing Periods). The subjects included otherwise healthy males and females aged 18 to 64 years, inclusive, with a history of adult insomnia (insomnia disorder as defined by DSM-5 criteria) and who otherwise had no significant medical or psychiatric history.
Compound (1C) was administered orally in an immediate release tablet comprising the pharmaceutically acceptable excipients croscarmellose sodium (FMC Health and Nutrition, Philadelphia, Pa.), hydroxypropylcellulose (Ashland Inc., Covington, Ky.), microcrystalline cellulose (Sigma-Aldrich, St. Louis, Mo.), and mannitol (SPI Pharma, Wilmington, Del.). […] Placebo tablets matching the Compound (1C) tablets were orally administered in the same way. The placebo tablets comprised the four above-described pharmaceutically acceptable excipients but with no Compound (1C).
During a baseline visit (Days −7 to −6), successful subjects arrived at a clinical unit in the afternoon or evening of Day −7. At that time, they began a stay of two consecutive nights during which each subject underwent continuous PSG recording for eight hours on the first night (Night 1) to assess eligibility criteria and to screen out subjects with sleep apnea or periodic limb movements with arousal. Still-successful subjects underwent another eight hours of continuous PSG recording on the second night (Night 2), which determined if a subject met the sleep-eligibility criteria based on the average of data obtained on Nights 1 and 2 of the baseline visit. During the baseline visit, subjects also practiced and took a post-sleep test used in this study, i.e., the digit symbol substitution test (“DSST”), and familiarized themselves with the Karolinska Sleepiness Scale (“KSS”) evaluation form. To assess a subject's perception of the “quality” and “quantity” of sleep, a post-sleep questionnaire was used to ask questions such as “how many minutes did it take you to fall asleep last night after you got into bed and the lights were turned off?”, “how many times did you awaken during the night?”, and “on a scale from 1 to 10, with 1 being poor and 10 being excellent, how would you rate the quality of your sleep last night?”. Subjects who met all eligibility criteria after the baseline visit returned approximately seven days later to enter the treatment period (Dosing Periods 1-5).
A summary of the PSG recording procedure that was used is as follows. Standard placements for EEG electrodes were derived according to the international 10-20 system (see, e.g., Jasper, “The ten-twenty electrode system of the international federation,” Electroencephalography Clin. Neurophys. 10:371-375 (1958)) with the exception of the change of the A1-A2 labels to M1-M2, pursuant to the AASM Manual for Scoring of Sleep (Berry et al., “The AASM Manual for the Scoring of Sleep and Associated Events: Rules, Terminology and Technical Specifications,” Version 2.0.3, American Academy of Sleep Medicine, Darien, Ill., (2014)). This system requires that electrodes be positioned in measured relationships to landmark anatomical points. Standard placements for EOG, submental EMG electrodes, anterior tibialis EMG electrodes, and airflow sensors were consistent with the AASM Manual for Scoring of Sleep.
(2) The 27-day treatment period included five dosing periods (Dosing Periods 1-5) that were at least 5 days apart. Once continued eligibility was confirmed, subjects were randomized as to treatment upon check-in on Day 1. […] The time subjects spent in bed in an undisturbed environment was fixed at 8 hours (i.e., 960 PSG epochs of 30 seconds duration per epoch).
Following the evening-time dosing with study drug, subjects underwent eight hours of continuous PSG recording. […]

[2] = assay type: in vivo, human; conditions: Compound (1C) tablets administered orally
From the text: The comparators in an abuse potential study are typically controlled substances from the same pharmacologic class as the investigational drug. However, Compound (1C) is a novel drug class for which no controlled substances/drugs of abuse are available for comparison. […] There was no evidence of other effects of interest to abusers, such as perceptual disturbances or stimulation. […] Placebo control was used to establish the frequency and magnitude of changes in clinical endpoints that may occur in the absence of active treatment as well as to minimize subject and investigator bias.

[3] = all treatment groups (0.5, 1.0, 3.0, 6.0 mg)
[4] = 0.2 mg aqueous suspension (N =24)
[5] = 0.6 mg aqueous suspension (N =24)
[6] = 2.0 mg aqueous suspension (N =23)
[7] = 6.0 mg aqueous suspension (N =25)

Compound: O=C(O)c1nc2ccccc2n([C@H]2C[C@H]3CCC[C@@H](C2)N3C2CC3CCCC(C3)C2)c1=O (stereo partly shown) [Compound (1C)]
- Latency to Persistent Sleep (LPS) Least Squares Means (STDE) ([1]; 0.5 mg oral): −25.9 (2.78) min
- Sleep Efficiency (SE) Least Squares Means (STDE) ([1]; 0.5 mg oral): 12.1 (1.02) %
- Time Spent in Sleep Stage N2 Least Squares Means (STDE) ([1]; 0.5 mg oral): 57.1 (5.53) min
- Total Sleep Time (TST) Least Squares Means (STDE) ([1]; 0.5 mg oral): 57.9 (4.88) min
- Wake after Sleep Onset (WASO) Least Squares Means (STDE) ([1]; 0.5 mg oral): −37.1 (4.54) min
- Latency to Persistent Sleep (LPS) Difference of Least Squares Means vs. Placebo ([1]; 0.5 mg vs. Placebo): 2.6 min
- Sleep Efficiency (SE) Difference of Least Squares Means vs. Placebo ([1]; 0.5 mg vs. Placebo): 4.1%
- Time Spent in Sleep Stage N2 Difference of Least Squares Means vs. Placebo ([1]; 0.5 mg vs. Placebo): 33.6 min
- Total Sleep Time (TST) Difference of Least Squares Means vs. Placebo ([1]; 0.5 mg vs. Placebo): 19.8 min
- Wake after Sleep Onset (WASO) Difference of Least Squares Means vs. Placebo ([1]; 0.5 mg vs. Placebo): -24.3 min
- WASO, decrease in the difference of LSMs ([1]; 0.5 mg vs. placebo): 24.3 min
- Latency to Persistent Sleep (LPS) Least Squares Means (STDE) ([1]; 1.0 mg oral): −29.9 (2.78) min
- Sleep Efficiency (SE) Least Squares Means (STDE) ([1]; 1.0 mg oral): 14.7 (1.02) %
- Time Spent in Sleep Stage N2 Least Squares Means (STDE) ([1]; 1.0 mg oral): 69.2 (5.53) min
- Total Sleep Time (TST) Least Squares Means (STDE) ([1]; 1.0 mg oral): 70.3 (4.88) min
- Wake after Sleep Onset (WASO) Least Squares Means (STDE) ([1]; 1.0 mg oral): −44.5 (4.54) min
- Latency to Persistent Sleep (LPS) Difference of Least Squares Means vs. Placebo ([1]; 1.0 mg vs. Placebo): -1.4 min
- Sleep Efficiency (SE) Difference of Least Squares Means vs. Placebo ([1]; 1.0 mg vs. Placebo): 6.7%
- Time Spent in Sleep Stage N2 Difference of Least Squares Means vs. Placebo ([1]; 1.0 mg vs. Placebo): 45.7 min
- Total Sleep Time (TST) Difference of Least Squares Means vs. Placebo ([1]; 1.0 mg vs. Placebo): 32.3 min
- Wake after Sleep Onset (WASO) Difference of Least Squares Means vs. Placebo ([1]; 1.0 mg vs. Placebo): -31.8 min
- WASO, decrease in the difference of LSMs ([1]; 1.0 mg vs. placebo): 31.8 min
- Latency to Persistent Sleep (LPS) Least Squares Means (STDE) ([1]; 3.0 mg oral): −29.0 (2.82) min
- Sleep Efficiency (SE) Least Squares Means (STDE) ([1]; 3.0 mg oral): 17.6 (1.03) %
- Time Spent in Sleep Stage N2 Least Squares Means (STDE) ([1]; 3.0 mg oral): 132.1 (5.6) min
- Total Sleep Time (TST) Least Squares Means (STDE) ([1]; 3.0 mg oral): 84.5 (4.96) min
- Wake after Sleep Onset (WASO) Least Squares Means (STDE) ([1]; 3.0 mg oral): −59.1 (4.60) min
- Latency to Persistent Sleep (LPS) Difference of Least Squares Means vs. Placebo ([1]; 3.0 mg vs. Placebo): -0.5 min
- Sleep Efficiency (SE) Difference of Least Squares Means vs. Placebo ([1]; 3.0 mg vs. Placebo): 9.7%
- Time Spent in Sleep Stage N2 Difference of Least Squares Means vs. Placebo ([1]; 3.0 mg vs. Placebo): 108.5 min
- Total Sleep Time (TST) Difference of Least Squares Means vs. Placebo ([1]; 3.0 mg vs. Placebo): 46.4 min
- Wake after Sleep Onset (WASO) Difference of Least Squares Means vs. Placebo ([1]; 3.0 mg vs. Placebo): -46.4 min
- WASO, decrease in the difference of LSMs ([1]; 3.0 mg vs. placebo): 46.4 min
- Latency to Persistent Sleep (LPS) Least Squares Means (STDE) ([1]; 6.0 mg oral): −31.7 (2.78) min
- Sleep Efficiency (SE) Least Squares Means (STDE) ([1]; 6.0 mg oral): 19.0 (1.02) %
- Time Spent in Sleep Stage N2 Least Squares Means (STDE) ([1]; 6.0 mg oral): 146.3 (5.5) min
- Total Sleep Time (TST) Least Squares Means (STDE) ([1]; 6.0 mg oral): 91.0 (4.88) min
- Wake after Sleep Onset (WASO) Least Squares Means (STDE) ([1]; 6.0 mg oral): −63.5 (4.54) min
- Latency to Persistent Sleep (LPS) Difference of Least Squares Means vs. Placebo ([1]; 6.0 mg vs. Placebo): -3.2 min
- Sleep Efficiency (SE) Difference of Least Squares Means vs. Placebo ([1]; 6.0 mg vs. Placebo): 11.0%
- Time Spent in Sleep Stage N2 Difference of Least Squares Means vs. Placebo ([1]; 6.0 mg vs. Placebo): 122.8 min
- Total Sleep Time (TST) Difference of Least Squares Means vs. Placebo ([1]; 6.0 mg vs. Placebo): 52.9 min
- Wake after Sleep Onset (WASO) Difference of Least Squares Means vs. Placebo ([1]; 6.0 mg vs. Placebo): -50.8 min
- WASO, decrease in the difference of LSMs ([1]; 6.0 mg vs. placebo): 50.8 min
- Sleep Efficiency vs placebo [1, 3]: significantly increased
- Total Sleep Time vs placebo [1, 3]: significantly increased
- Wake after Sleep Onset vs placebo [1, 3]: significantly decreased
- amount of time spent in sleep Stage N2 vs placebo [1, 3]: significantly increased
- Latency to Persistent Sleep vs placebo ([1]; any of the treatment groups (0.5, 1.0, 3.0, 6.0 mg)): not significantly different
- Time to maximum concentration [2]: approximately 1.5 hours
- Ae, Mean [4]: 0.2232 mg
- Fe, Mean (fraction of dose excreted unchanged in urine over 24 hours) [4]: 111.60%
- Ae, Mean [5]: 0.6891 mg
- Fe, Mean (fraction of dose excreted unchanged in urine over 24 hours) [5]: 114.84%
- Ae, Mean [6]: 2.165 mg
- Fe, Mean (fraction of dose excreted unchanged in urine over 24 hours) [6]: 108.26%
- Ae, Mean [7]: 6.653 mg
- Fe, Mean (fraction of dose excreted unchanged in urine over 24 hours) [7]: 110.88%
